Data from patent US12569563B2, “Selective HDAC6 degraders and methods of use thereof” (DANA-FARBER CANCER INSTITUTE, INC., priority 2019, dated 2026).

Target: T1, HDAC6 (Homo sapiens, UniProt Q9UBN7)
T1 sequence (Q9UBN7 1-1215): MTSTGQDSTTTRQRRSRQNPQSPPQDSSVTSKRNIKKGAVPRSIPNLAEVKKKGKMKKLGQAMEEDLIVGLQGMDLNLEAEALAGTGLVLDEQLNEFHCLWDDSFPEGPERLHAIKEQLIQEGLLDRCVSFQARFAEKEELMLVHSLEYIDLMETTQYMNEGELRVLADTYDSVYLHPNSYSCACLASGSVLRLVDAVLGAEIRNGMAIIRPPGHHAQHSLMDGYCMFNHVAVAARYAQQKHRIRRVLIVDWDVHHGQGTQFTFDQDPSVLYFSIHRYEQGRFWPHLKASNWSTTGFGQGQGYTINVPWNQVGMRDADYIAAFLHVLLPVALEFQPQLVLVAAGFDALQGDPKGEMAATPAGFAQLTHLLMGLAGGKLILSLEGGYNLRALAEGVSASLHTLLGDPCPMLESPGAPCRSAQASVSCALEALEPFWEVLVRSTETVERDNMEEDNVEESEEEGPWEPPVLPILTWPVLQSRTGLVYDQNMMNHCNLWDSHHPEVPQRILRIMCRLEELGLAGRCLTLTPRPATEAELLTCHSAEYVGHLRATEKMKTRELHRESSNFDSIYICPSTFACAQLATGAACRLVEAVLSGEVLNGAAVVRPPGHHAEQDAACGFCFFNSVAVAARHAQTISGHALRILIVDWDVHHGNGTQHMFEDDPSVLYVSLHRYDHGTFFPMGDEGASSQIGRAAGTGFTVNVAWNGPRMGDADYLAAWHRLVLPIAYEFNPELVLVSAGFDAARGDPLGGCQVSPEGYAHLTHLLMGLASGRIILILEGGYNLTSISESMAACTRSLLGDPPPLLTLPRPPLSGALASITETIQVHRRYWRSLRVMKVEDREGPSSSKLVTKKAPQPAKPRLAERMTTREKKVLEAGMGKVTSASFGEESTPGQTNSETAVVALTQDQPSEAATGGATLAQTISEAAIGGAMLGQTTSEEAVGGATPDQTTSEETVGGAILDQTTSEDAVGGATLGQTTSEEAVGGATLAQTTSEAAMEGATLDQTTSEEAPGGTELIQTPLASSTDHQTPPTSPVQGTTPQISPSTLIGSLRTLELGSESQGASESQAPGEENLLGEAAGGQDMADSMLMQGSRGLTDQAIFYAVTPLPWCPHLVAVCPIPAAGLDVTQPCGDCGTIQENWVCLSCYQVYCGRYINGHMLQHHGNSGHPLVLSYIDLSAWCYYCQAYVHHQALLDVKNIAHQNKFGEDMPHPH
Test: Multiplexed TMT mass spectrometry proteomics in Kelly cells, HDAC6 abundance
Type: cell-based
Parameters: endogenous in cells; host or cells: Kelly cells
Experimental: Lysis buffer (8 M Urea, 50 mM NaCl, 50 mM 4-(2hydroxyethyl)-1-piperazineethanesulfonic acid (EPPS) pH 8.5, protease and phosphatase inhibitors from Roche®) were added to the cell pellets and homogenized by 20 passes through a 21 gauge (1.25 in. long) needle to achieve a cell lysate with a protein concentration between 1-4 mg mL^−1. A micro-BCA assay (Pierce™) was used to determine the final protein concentration in the cell lysate. 200 μg of protein for each sample were reduced and alkylated as described above.
Proteins were precipitated using methanol/chloroform. Four volumes of methanol were added to the cell lysate, followed by one volume of chloroform, and finally three volumes of water. The mixture was vortexed and centrifuged to separate the chloroform phase from the aqueous phase. The precipitated protein was washed with three volumes of methanol, centrifuged and the resulting washed precipitated protein was allowed to air dry. The precipitated protein was resuspended in 4 M Urea, 50 mM HEPES pH 7.4, followed by dilution to 1 M urea with the addition of 200 mM EPPS, pH 8. Proteins were first digested with LysC (1:50; enzyme:protein) for 12 hours at room temperature. The LysC digestion was diluted to 0.5 M Urea with 200 mM EPPS pH 8 followed by digestion with trypsin (1:50; enzyme:protein) for 6 hours at 37° C. Tandem mass tag (TMT) reagents (Thermo Fisher Scientific™) were dissolved in anhydrous acetonitrile (ACN) according to manufacturer's instructions.
Anhydrous ACN was added to each peptide sample to a final concentration of 30% v/v, and labeling was induced with the addition of TMT reagent to each sample at a ratio of 1:4 peptide:TMT label. […] The sample channels were combined at a 1:1:1:1:1:1:1:1:1:1:1 ratio, desalted using Cis solid phase extraction cartridges (Waters) and analyzed by LC-MS for channel ratio comparison. Samples were then combined using the adjusted volumes determined in the channel ratio analysis and dried down in a speed vacuum. […]

course of HDAC6 protein levels, time course (FIG. 4) (1 μM, over the course of 16 hours): continued to decrease
SMILES: CN(C(=O)CCCNc1cccc2c1C(=O)N(C1CCC(=O)NC1=O)C2=O)c1ccc(NC(=O)CCCCCCC(=O)NO)cc1 (stereo not drawn) [Compound 1, N^1-(4-(4-((2-(2,6-dioxopiperidin-3-yl)-1,3-dioxoisoindolin-4-yl)amino)-N-methylbutanamido)phenyl)-N^8-hydroxyoctanediamide]
change in cellular HDAC6 protein levels vs DMSO (heat map FIG. 5) (1 μM, 2, 4, 8, and 16 hours): induced down regulation of cellular HDAC6 protein levels
change in HDAC6 protein levels vs DMSO, time course (FIG. 4) (1 μM, after 2 hours): significant reduction in HDAC6 protein levels
